The source of these data is patent US9353051B2, “Antiviral drugs for treatment or prevention of dengue infection” (Siga Technologies Inc., priority 2007, dated 2016).

The subject of this experiment is Dengue-2 (Strain New Guinea C). Nature of the experiment: viral yield assay against Dengue-2 in Vero cells. It counts as cell-based. The conditions noted are these: Dengue virus; for EC90: read-out: EC90 Yield Den-2. The procedure:
Compounds that were active in the primary screen were also tested for activity in viral yield assays. […] Vero cells in 12-well plates were infected with dengue-2 virus at a multiplicity of infection (MOI) of 0.1, treated with compound (or DMSO as a control), incubated at 37° C., harvested 48 hours post infection and titered on Vero cells as described above. The EC50 was calculated through ExcelFit. Those compounds with activity below 1 μM are indicated with “A”, those with activity between 1 and 10 μM are indicated with “B”, those with activity between 10 and 25 μM with “C”, and those with activity above 25 μM are indicated with “D”.

Setting [1] is: Vero cells, MOI 0.1, harvested 48 hours post infection, read-out: Activity (anti-dengue 2 viral activity, EC50).
Setting [2] is: viral yield assay, Vero cells, read-out: EC50 Yield Den-2.

Where two headings read alike, the source gives them in different places. Where only a bound is given, the exact number is not on record here.

In the case of `CCN(CC)S(=O)(=O)c1ccc(NC(=O)Cn2cnc3sccc3c2=O)cc1` [Compound 5, N-(4-Diethylsulfamoyl-phenyl)-2-(4-oxo-4H-thieno[2,3-d]pyrimidin-3-yl)-acetamide], the EC50 (in general, the concentration that produces a half-maximal response) under setting [1] is 1 to 10 µM.

Take `CCN(CC)S(=O)(=O)c1ccc(NC(=O)Cn2cnc3sc(C)c(C)c3c2=O)cc1` [Compound 10, N-(4-Diethylsulfamoyl-phenyl)-2-(5,6-dimethyl-4-oxo-4H-thieno[2,3-d]pyrimidin-3-yl)-acetamide]: the concentration giving a half-maximal response (EC50) under setting [1] is 1 to 10 µM and the EC50 under setting [2] is 1.25 µM. Moreover, the EC90 (usually the concentration needed for an effect of 90%) (viral yield assay, Vero cells) is over 50 µM.

`CCc1cc2c(=O)n(CC(=O)Nc3ccc(S(=O)(=O)N(CC)CC)cc3)cnc2s1` [Compound 11, N-(4-Diethylsulfamoyl-phenyl)-2-(6-ethyl-4-oxo-4H-thieno[2,3-d]pyrimidin-3-yl)-acetamide]: the EC50 reads like this: under setting [1], 1 to 10 µM; under setting [2], 4.9 µM. The concentration for an effect of 90% (EC90) (viral yield assay, Vero cells) was over 50 µM.

Take `CCN(CC)S(=O)(=O)c1ccc2c(c1)CCN2C(=O)Cn1cnc2ccccc2c1=O` [Compound 17, 1-[2-(4-Oxo-4H-quinazolin-3-yl)-acetyl]-2,3-dihydro-1H-indole-5-sulfonic acid diethylamide]: the EC50 is, setting by setting: under setting [1], 1 to 10 µM; under setting [2], 5.1 µM. For the same compound, the 90% effect concentration (EC90) (viral yield assay, Vero cells) is 12.1 µM.

On to `CC1CCCC(C)N1S(=O)(=O)c1ccc(NC(=O)Cn2cnc3ccccc3c2=O)cc1` (stereo not shown) [Compound 18, N-[4-(2,6-Dimethyl-piperidine-1-sulfonyl)-phenyl]-2-(4-oxo-4H-quinazolin-3-yl)-acetamide], for which, under setting [1], the EC50 is 1 to 10 µM.

Regarding `CC1CC(C)CN(S(=O)(=O)c2ccc(NC(=O)Cn3cnc4ccccc4c3=O)cc2)C1` (stereo not shown) [Compound 19, N-[4-(3,5-Dimethyl-piperidine-1-sulfonyl)-phenyl]-2-(4-oxo-4H-quinazolin-3-yl)-acetamide], the concentration giving a half-maximal response (EC50) under setting [1] lay within 1 to 10 µM.

On to `CCN(CC)S(=O)(=O)c1ccc(OC)c(NC(=O)Cn2nnc3ccccc3c2=O)c1` [Compound 20, N-(5-Diethylsulfamoyl-2-methoxy-phenyl)-2-(4-oxo-4H-benzo[d][1,2,3]triazin-3-yl)-acetamide], for which the concentration giving a half-maximal response (EC50) reads like this: (Vero, read-out: EC50 Yield Den-2) 1.3 µM; under setting [1], 1 to 10 µM. Moreover, the 90% effect concentration (EC90) (Vero) was 20 µM.

With `CCN(CC)S(=O)(=O)c1ccc(NC(=O)Cn2cnc3ccsc3c2=O)cc1` [Compound 22, N-(4-Diethylsulfamoyl-phenyl)-2-(4-oxo-4H-thieno[3,2-d]pyrimidin-3-yl)-acetamide], the half-maximal effective concentration (EC50) under setting [1] lay in the range of 10 to 25 µM.

Consider `CCN(CC)S(=O)(=O)c1ccc(NC(=O)Cn2cnc3cc(Cl)ccc3c2=O)cc1` [Compound 23, 2-(7-Chloro-4-oxo-4H-quinazolin-3-yl)-N-(4-diethylsulfamoyl-phenyl)-acetamide], for which the EC50 under setting [1] lay in the range of 10 to 25 µM.

Take `CCN(CC)S(=O)(=O)c1ccc(NC(=O)Cn2cnc3c(oc4ccccc43)c2=O)cc1` [Compound 24, N-(4-Diethylsulfamoyl-phenyl)-2-(4-oxo-4H-benzo [4,5]furo[3,2-d]pyrimidin-3-yl)-acetamide]: under setting [1], the EC50 is 10 to 25 µM.

In the case of `CCN(CC)S(=O)(=O)c1ccc(OC(C)C)c(NC(=O)CCn2nnc3ccccc3c2=O)c1` [Compound 25, N-(5-Diethylsulfamoyl-2-isopropoxy-phenyl)-3-(4-oxo-4H-benzo[d][1,2,3]triazin-3-yl)-propionamide], the EC50 under setting [1] was 10 to 25 µM.

As to `CCN(CC)S(=O)(=O)c1ccc(NC(=O)Cn2cnc3c(C)cccc3c2=O)cc1` [Compound 26, N-(4-Diethylsulfamoyl-phenyl)-2-(8-methyl-4-oxo-4H-quinazolin-3-yl)-acetamide], the half-maximal effective concentration (EC50) under setting [1] was 10 to 25 µM.

With `CCN(CC)S(=O)(=O)c1ccc(OC)c(NC(=O)CCn2nnc3ccccc3c2=O)c1` [Compound 27, N-(5-Diethylsulfamoyl-2-methoxy-phenyl)-3-(4-oxo-4H-benzo[d][1,2,3]triazin-3-yl)-propionamide], the half-maximal effective concentration (EC50) under setting [1] lay in the range of 10 to 25 µM.

As to `CC1CCCC(C)N1S(=O)(=O)c1ccc(NC(=O)Cn2cnc3sccc3c2=O)cc1` (stereo not shown) [Compound 28, N-[4-(2,6-Dimethyl-piperidine-1-sulfonyl)-phenyl]-2-(4-oxo-4H-thieno[2,3-d]pyrimidin-3-yl)-acetamide], the EC50 under setting [1] was in the range of 10 to 25 µM.

Turning to `CCN(CC(=O)Nc1ccc(S(=O)(=O)N(CC)CC)cc1)Cc1nc2ccccc2c(=O)[nH]1` [Compound 29, N-(4-Diethylsulfamoyl-phenyl)-2-[ethyl-(4-oxo-3,4-dihydro-quinazolin-2-ylmethyl)-amino]-acetamide], the 50% effective concentration (EC50) under setting [1] lay within 10 to 25 µM.

Regarding `O=C(Cn1cnc2ccccc2c1=O)Nc1ccc(S(=O)(=O)NCC(F)(F)F)cc1` [Compound 30, 2-(4-Oxo-4H-quinazolin-3-yl)-N-[4-(2,2,2-trifluoro-ethylsulfamoyl)-phenyl]-acetamide], under setting [1], the concentration giving a half-maximal response (EC50) lay within 10 to 25 µM.

As to `O=C(Cn1cnc2ccccc2c1=O)Nc1ccc(S(=O)(=O)N2CCCC2)cc1` [Compound 31, 2-(4-Oxo-4H-quinazolin-3-yl)-N-[4-(pyrrolidine-1-sulfonyl)-phenyl]-acetamide], the concentration giving a half-maximal response (EC50) under setting [1] was over 25 µM.

`O=C(Cn1cnc2ccccc2c1=O)Nc1ccc(S(=O)(=O)Nc2nccs2)cc1` [Compound 32, 2-(4-Oxo-4H-quinazolin-3-yl)-N-[4-(thiazol-2-ylsulfamoyl)-phenyl]-acetamide]: the concentration giving a half-maximal response (EC50) under setting [1] was over 25 µM.

Consider `Cc1cc(C)nc(NS(=O)(=O)c2ccc(NC(=O)Cn3cnc4ccccc4c3=O)cc2)n1` [Compound 33, N-[4-(4,6-Dimethyl-pyrimidin-2-ylsulfamoyl)-phenyl]-2-(4-oxo-4H-quinazolin-3-yl)-acetamide], for which the EC50 under setting [1] is over 25 µM.

Take `O=C(Cn1cnc2ccccc2c1=O)Nc1ccc(S(=O)(=O)N2CCOCC2)cc1` [Compound 34, N-[4-(Morpholine-4-sulfonyl)-phenyl]-2-(4-oxo-4H-quinazolin-3-yl)-acetamide]: under setting [1], the EC50 is over 25 µM.

As to `CCCCN(C)S(=O)(=O)c1ccc(NC(=O)Cn2cnc3ccccc3c2=O)cc1` [Compound 35, N-[4-(Butyl-methyl-sulfamoyl)-phenyl]-2-(4-oxo-4H-quinazolin-3-yl)-acetamide], under setting [1], the EC50 was over 25 µM.

Take `CN(Cc1ccccc1)S(=O)(=O)c1ccc(NC(=O)Cn2cnc3ccccc3c2=O)cc1` [Compound 36, N-[4-(Benzyl-methyl-sulfamoyl)-phenyl]-2-(4-oxo-4H-quinazolin-3-yl)-acetamide]: the concentration giving a half-maximal response (EC50) under setting [1] is over 25 µM.

Turning to `CC1CCCCN1S(=O)(=O)c1ccc(NC(=O)Cn2cnc3ccccc3c2=O)cc1` (stereo not shown) [Compound 37, N-[4-(2-Methyl-piperidine-1-sulfonyl)-phenyl]-2-(4-oxo-4H-quinazolin-3-yl)-acetamide], the EC50 under setting [1] was over 25 µM.

Consider `NS(=O)(=O)c1ccc(NC(=O)Cn2cnc3ccccc3c2=O)cc1` [Compound 38, 2-(4-Oxo-4H-quinazolin-3-yl)-N-(4-sulfamoyl-phenyl)-acetamide], for which the concentration giving a half-maximal response (EC50) under setting [1] was over 25 µM.

In the case of `O=C(Cn1cnc2ccccc2c1=O)Nc1ccc(S(=O)(=O)Nc2ncccn2)cc1` [Compound 39, 2-(4-Oxo-4H-quinazolin-3-yl)-N-[4-(pyrimidin-2-ylsulfamoyl)-phenyl]-acetamide], under setting [1], the concentration giving a half-maximal response (EC50) was over 25 µM.

Regarding `O=C(Cn1cnc2ccccc2c1=O)Nc1ccc(S(=O)(=O)NCCCN2CCOCC2)cc1` [Compound 40, N-[4-(3-Morpholin-4-yl-propylsulfamoyl)-phenyl]-2-(4-oxo-4H-quinazolin-3-yl)-acetamide], the EC50 under setting [1] was over 25 µM.
